The structures appear in SMILES notation.

Among the data in US20240132464A1, “HETEROCYCLIC COMPOUNDS AS E3 LIGASE INHIBITORS” (Accutar Biotechnology Inc., priority 2022, published 2024) are IC50 values, retold here.

For the experiment, the target named is T1, GID4 (Uniprot ID: Q81VV7, residues 124-289) (Homo sapiens, UniProt Q8IVV7).
T1 construct: GID4 (Uniprot ID: Q81VV7, residues 124-289)
T1 sequence (Q8IVV7 124-289): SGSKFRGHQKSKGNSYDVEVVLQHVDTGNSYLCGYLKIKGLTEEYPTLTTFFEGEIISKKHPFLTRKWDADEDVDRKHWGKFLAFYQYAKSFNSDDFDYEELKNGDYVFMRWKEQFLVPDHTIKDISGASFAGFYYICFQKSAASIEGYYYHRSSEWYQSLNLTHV
The experiment in a line: GID4 competitive binding assay (AlphaScreen, GID4/degron peptide PGLW). Conditions: 24 nM GID4, 48 nM biotinylated degron peptide PGLW, 4° C., read-out: IC50 (Inhibition of GID4/Degron binding by test compounds). Put shortly:
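Displacement of biotin-tagged degron tetrapeptide PGLW (48 nM) from C-terminally 6His-tagged GID4 124-289 (24 nM) read by AlphaScreen proximity signal. Compound incubation 2 h, then beads 1 h, all at 4 °C, pH 7.5, 2% DMSO final; background-corrected inhibition fitted with variable slope for IC50.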
As for `CN(C)CCCNC(=O)c1cc(F)c(-c2cc(O)c3ncccc3c2)cc1Cl` [Compound 315, 2-chloro-N-(3-(dimethylamino)propyl)-5-fluoro-4-(8-hydroxyquinolin-6-yl)benzamide], the IC50 is less than 500 nM. Next, `CN(C)CCCNC(=O)c1cc(F)c(-c2cc(O)c3ncccc3c2)cc1F` [Compound 316, N-(3-(dimethylamino)propyl)-2,5-difluoro-4-(8-hydroxyquinolin-6-yl)benzamide]: less than 500 nM.

`CN(C)CCCNC(=O)c1ccc(-c2cc(O)c3ncccc3c2)c(Cl)c1` [Compound 317, 3-chloro-N-(3-(dimethylamino)propyl)-4-(8-hydroxyquinolin-6-yl)benzamide]: the IC50 is 500 to 5000 nM.

For the compound `CN(C)CCCNC(=O)c1c(Cl)cc(-c2cc(O)c3ncccc3c2)cc1Cl` [Compound 318, 2,6-dichloro-N-(3-(dimethylamino)propyl)-4-(8-hydroxyquinolin-6-yl)benzamide], the IC50 was less than 500 nM. As for `Cc1c(-c2ccc(C(=O)NCCCN(C)C)cc2)cc(O)c2ncccc12` [Compound 319, N-(3-(dimethylamino)propyl)-4-(8-hydroxy-5-methylquinolin-6-yl)benzamide], the figure is 500 to 5000 nM; as for `Cc1cc(C(=O)NCCCN(C)C)ccc1-c1cc(O)c2ncccc2c1` [Compound 320, N-(3-(dimethylamino)propyl)-4-(8-hydroxyquinolin-6-yl)-3-methylbenzamide], 500 to 5000 nM; as for `CN(C)CCCNC(=O)c1ccc(-c2cc3cccnc3c(O)c2Cl)cc1` [Compound 321, 4-(7-chloro-8-hydroxyquinolin-6-yl)-N-(3-(dimethylamino)propyl)benzamide], less than 500 nM. Next, `CN(C)CCCNC(=O)c1cc(Cl)c(-c2cc(O)c3ncccc3c2)cc1Cl` [Compound 322, 2,5-dichloro-N-(3-(dimethylamino)propyl)-4-(8-hydroxyquinolin-6-yl)benzamide]: less than 500 nM. As for `CN(C)CCCNC(=O)c1ccc(-c2cc(O)c3ncccc3c2)c(Br)c1` [Compound 323, 3-bromo-N-(3-(dimethylamino)propyl)-4-(8-hydroxyquinolin-6-yl)benzamide], the figure is 500 to 5000 nM. Turning to `Oc1cc(C2=CCNCC2)cc2cccnc12` [Compound 324, 6-(1,2,3,6-tetrahydropyridin-4-yl)quinolin-8-ol], the IC50 was 500 to 5000 nM. As to `CN(C)CCCNC(=O)c1ccc(-c2cc(O)c3ncccc3c2)c(F)c1` [Compound 325, N-(3-(dimethylamino)propyl)-3-fluoro-4-(8-hydroxyquinolin-6-yl)benzamide], the IC50 is 500 to 5000 nM. As to `COc1cc(CNC(=O)c2n[nH]c3ccc(-c4ccc5ccnc(N)c5c4)cc23)ccn1` [Compound 326, 5-(1-aminoisoquinolin-7-yl)-N-((2-methoxypyridin-4-yl)methyl)-1H-indazole-3-carboxamide], the IC50 is less than 500 nM. Next, `CN(C)CCNC(=O)c1n[nH]c2ccc(-c3ccc4ccnc(N)c4c3)nc12` [Compound 327, 5-(1-aminoisoquinolin-7-yl)-N-(2-(dimethylamino)ethyl)-1H-pyrazolo[4,3-b]pyridine-3-carboxamide]: 500 to 5000 nM; `Cn1cc(CNC(=O)c2n[nH]c3ccc(-c4ccc5ccnc(N)c5c4)cc23)cn1` [Compound 328, 5-(1-aminoisoquinolin-7-yl)-N-((1-methyl-1H-pyrazol-4-yl)methyl)-1H-indazole-3-carboxamide]: less than 500 nM.

Take `CN(C)CCNC(=O)c1n[nH]c2ccc(-c3ccc4ncnc(N)c4c3)cc12` [Compound 329, 5-(4-aminoquinazolin-6-yl)-N-(2-(dimethylamino)ethyl)-1H-indazole-3-carboxamide]: the IC50 lay within 500 to 5000 nM. As for `CN(C)CCCNC(=O)c1n[nH]c2ccc(-c3ccc4ncnc(N)c4c3)cc12` [Compound 330, 5-(4-aminoquinazolin-6-yl)-N-(3-(dimethylamino)propyl)-1H-indazole-3-carboxamide], the IC50 is 500 to 5000 nM. Regarding `Nc1nccc2ccc(-c3ccc4[nH]nc(C(=O)NCCO)c4c3)cc12` [Compound 331, 5-(1-aminoisoquinolin-7-yl)-N-(2-hydroxyethyl)-1H-indazole-3-carboxamide], the IC50 is less than 500 nM. As for `COC1CCN(C(=O)c2n[nH]c3ccc(-c4ccc5ccnc(N)c5c4)cc23)CC1` [Compound 332, (5-(1-aminoisoquinolin-7-yl)-1H-indazol-3-yl)(4-methoxypiperidin-1-yl)methanone], the figure is less than 500 nM; as for `Nc1nccc2ccc(-c3ccc4[nH]nc(C(=O)NC[C@H]5CC[C@@H](O)CC5)c4c3)cc12` [Compound 333, 5-(1-aminoisoquinolin-7-yl)-N-((cis-4-hydroxycyclohexyl)methyl)-1H-indazole-3-carboxamide], less than 500 nM; as for `CN1CC(CNC(=O)c2n[nH]c3ccc(-c4ccc5ccnc(N)c5c4)cc23)C1` [Compound 334, 5-(1-aminoisoquinolin-7-yl)-N-((1-methylazetidin-3-yl)methyl)-1H-indazole-3-carboxamide], less than 500 nM.

Take `CN(C)C1CCN(C(=O)c2n[nH]c3ccc(-c4ccc5ccnc(N)c5c4)cc23)CC1` [Compound 335, (5-(1-aminoisoquinolin-7-yl)-1H-indazol-3-yl)(4-(dimethylamino)piperidin-1-yl)methanone]: the IC50 was less than 500 nM. For the compound `Nc1nccc2ccc(-c3ccc4[nH]nc(C(=O)N5CCC(O)CC5)c4c3)cc12` [Compound 336, (5-(1-aminoisoquinolin-7-yl)-1H-indazol-3-yl)(4-hydroxypiperidin-1-yl)methanone], the IC50 is less than 500 nM. As to `CN1CCC(CNC(=O)c2n[nH]c3ccc(-c4ccc5ccnc(N)c5c4)cc23)CC1` [Compound 337, 5-(1-aminoisoquinolin-7-yl)-N-((1-methylpiperidin-4-yl)methyl)-1H-indazole-3-carboxamide], the IC50 is less than 500 nM. Next, `CN1CCC(NC(=O)c2n[nH]c3ccc(-c4ccc5ccnc(N)c5c4)cc23)CC1` [Compound 338, 5-(1-aminoisoquinolin-7-yl)-N-(1-methylpiperidin-4-yl)-1H-indazole-3-carboxamide]: less than 500 nM. As for `Nc1nccc2ccc(-c3ccc4[nH]nc(C(=O)N5CCC(N)CC5)c4c3)cc12` [Compound 339, (5-(1-aminoisoquinolin-7-yl)-1H-indazol-3-yl)(4-aminopiperidin-1-yl)methanone], the figure is less than 500 nM; as for `CN(C)CCCNC(=O)c1cccc(-c2ccc3ccnc(N)c3n2)c1` [Compound 340, 3-(8-amino-1,7-naphthyridin-2-yl)-N-(3-(dimethylamino)propyl)benzamide], greater than 5000 nM; as for `CN(C)CCNC(=O)c1n[nH]c2ccc(-c3ccc4ccnc(N)c4c3)cc12` [Compound 341, 5-(1-aminoisoquinolin-7-yl)-N-(2-(dimethylamino)ethyl)-1H-indazole-3-carboxamide], less than 500 nM. As for `Nc1nccc2ccc(-c3cc(C(=O)N4CCCC4)cc4c3CCCC4)cc12` [Compound 342, (4-(1-aminoisoquinolin-7-yl)-5,6,7,8-tetrahydronaphthalen-2-yl)(pyrrolidin-1-yl)methanone], the figure is 500 to 5000 nM; as for `Nc1nccc2ccc(Cc3cccc(C(=O)N4CCCC4)c3)cc12` [Compound 343, (3-((1-aminoisoquinolin-7-yl)methyl)phenyl)(pyrrolidin-1-yl)methanone], greater than 5000 nM. As to `CN1CCN(CCc2cccc(-c3ccc4ccnc(N)c4c3)c2)CC1` [Compound 344, 7-(3-(2-(4-methylpiperazin-1-yl)ethyl)phenyl)isoquinolin-1-amine], the IC50 was greater than 5000 nM. Next, `CN1CCC(NC(=O)c2cccc(-c3ccc4ccnc(N)c4c3)c2)CC1` [Compound 345, 3-(1-aminoisoquinolin-7-yl)-N-(1-methylpiperidin-4-yl)benzamide]: 500 to 5000 nM; `COC1CCN(C(=O)c2cccc(-c3ccc4ccnc(N)c4c3)c2)CC1` [Compound 346, (3-(1-aminoisoquinolin-7-yl)phenyl)(4-methoxypiperidin-1-yl)methanone]: 500 to 5000 nM; `CN1CC(CNC(=O)c2cccc(-c3ccc4ccnc(N)c4c3)c2)C1` [Compound 347, 3-(1-aminoisoquinolin-7-yl)-N-((1-methylazetidin-3-yl)methyl)benzamide]: greater than 5000 nM. As for `CN(C)CCCNC(=O)c1cccc(-c2ccc3ccnc(N)c3c2)c1` [Compound 348, 3-(1-aminoisoquinolin-7-yl)-N-(3-(dimethylamino)propyl)benzamide], the figure is greater than 5000 nM; as for `Nc1nccc2ccc(-c3csc(C(=O)N4CCCC4)c3)cc12` [Compound 349, (4-(1-aminoisoquinolin-7-yl)thiophen-2-yl)(pyrrolidin-1-yl)methanone], greater than 5000 nM; as for `CN(C)C1CCN(C(=O)c2cccc(-c3ccc4c(=O)[nH]ccc4c3)c2)C1` (stereo not drawn) [Compound 350, 6-(3-(3-(dimethylamino)pyrrolidine-1-carbonyl)phenyl)isoquinolin-1(2H)-one], greater than 5000 nM. Next, `CN1CCN(C(=O)c2cccc(-c3ccc4ccnc(N)c4c3)c2)CC1` [Compound 351, (3-(1-aminoisoquinolin-7-yl)phenyl)(4-methylpiperazin-1-yl)methanone]: greater than 5000 nM; `O=C(c1cccc(-c2ccc3c(=O)[nH]ccc3c2)c1)N1CCCC1` [Compound 352, 6-(3-(pyrrolidine-1-carbonyl)phenyl)isoquinolin-1(2H)-one]: 500 to 5000 nM. For the compound `Nc1nccc2ccc(-c3cccc(C(=O)N4CCCC4)c3)cc12` [Compound 353, (3-(1-aminoisoquinolin-7-yl)phenyl)(pyrrolidin-1-yl)methanone], the IC50 was in the range of 500 to 5000 nM.
